This is an account of results in PubChem BioAssay AID256 (DTP/NCI, 2004).

For this test, the system named is CD2F1 mice, L1210 leukemia ip, survival T/C. As to the kind of experiment: NCI In Vivo Anticancer Drug Screen. Data for tumor model L1210 Leukemia (intraperitoneal) in CD2F1 (CDF1) mice. Particulars: endpoint: mean survival time, higher = longer survival. The method in brief: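 Tumor-bearing mice (transplanted tumor) were split into treated and vehicle control groups, and the measured endpoint of each treated group was divided by that of its vehicle controls.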

Where [1] appears, read: dose: 50.0 mg/kg/injection, schedule: Q01DX009 (ip), vehicle: saline.
The mark [2] stands for this setting: dose: 100.0 mg/kg/injection, schedule: Q01DX009 (ip), vehicle: saline.
[3] abbreviates: dose: 200.0 mg/kg/injection, schedule: Q01DX009 (ip), vehicle: saline.

SMILES strings stand for the structures. “And” between values parts separate entries of the source, which are not always exact repeats. Equal entries are not always repeated. Inconclusive results and toxic doses are left out.

Regarding `Nc1nc(=O)n(C2OC(CO)C(O)C2O)cc1F` (stereo not given), the T/C reads like this: (dose: 0.25 mg/kg/injection, schedule: Q01DX009 (ip), vehicle: saline) 121 % of control; (dose: 0.5 mg/kg/injection, schedule: Q01DX009 (sc), vehicle: saline) 97 % of control; (dose: 1.0 mg/kg/injection, schedule: Q03HX024 (ip), vehicle: saline) 346 % of control; (dose: 2.0 mg/kg/injection, schedule: Q01DX009 (sc), vehicle: saline) 121 % of control; (dose: 4.0 mg/kg/injection, schedule: Q01DX009 (ip), vehicle: saline) 157 % of control; (dose: 4.0 mg/kg/injection, schedule: Q08DX002 (ip), vehicle: saline) 106 % of control. Moreover, the T/C by setting is: (dose: 8.0 mg/kg/injection, schedule: Q01DX009 (sc), vehicle: saline) 152 % of control; (dose: 8.0 mg/kg/injection, schedule: Q03HX024 (ip), vehicle: saline) 540 % of control; (dose: 12.5 mg/kg/injection, schedule: Q01DX009 (ip), vehicle: saline) 218 % of control and 227 % of control; (dose: 16.0 mg/kg/injection, schedule: Q01DX009 (ip), vehicle: saline) 186 % of control and 194 % of control; (dose: 16.0 mg/kg/injection, schedule: Q03HX016 (ip), vehicle: saline) 248 % of control; (dose: 16.0 mg/kg/injection, schedule: Q03HX024 (oral), vehicle: saline) 327 % of control. The T/C is, setting by setting: (dose: 16.0 mg/kg/injection, schedule: Q08DX002 (ip), vehicle: saline) 114 % of control; (dose: 18.8 mg/kg/injection, schedule: Q01DX008 (ip), vehicle: saline) 189 % of control; (dose: 18.8 mg/kg/injection, schedule: Q01DX008 (oral), vehicle: saline) 167 % of control; (dose: 20.0 mg/kg/injection, schedule: Q01DX007 (ip), vehicle: saline) 195 % of control; (dose: 20.0 mg/kg/injection, schedule: Q01DX009 (ip), vehicle: saline) 187 % of control; (dose: 20.0 mg/kg/injection, schedule: Q04DX003 (ip), vehicle: saline) 152 % of control. Further, the T/C (dose: 25.0 mg/kg/injection, schedule: Q01DX009 (ip), vehicle: saline) was 215 % of control and 233 % of control; the T/C (dose: 32.0 mg/kg/injection, schedule: Q01DX009 (ip), vehicle: saline) is 244 % of control; the T/C (dose: 32.0 mg/kg/injection, schedule: Q01DX009 (oral), vehicle: saline) is 163 % of control; the T/C (dose: 32.0 mg/kg/injection, schedule: Q01DX009 (sc), vehicle: saline) was 196 % of control; the T/C (dose: 32.0 mg/kg/injection, schedule: Q03HX008 (ip), vehicle: saline) is 120 % of control; the T/C (dose: 37.5 mg/kg/injection, schedule: Q01DX008 (ip), vehicle: saline) was 169 % of control. For the same molecule, the T/C was 175 % of control (dose: 37.5 mg/kg/injection, schedule: Q01DX008 (oral), vehicle: saline); 204 % of control (dose: 40.0 mg/kg/injection, schedule: Q01DX007 (ip), vehicle: saline); 229 % of control (dose: 40.0 mg/kg/injection, schedule: Q01DX009 (ip), vehicle: saline); 152 % of control (dose: 40.0 mg/kg/injection, schedule: Q04DX003 (ip), vehicle: saline); 153 % of control and 166 % of control under setting [1]; 221 % of control (dose: 64.0 mg/kg/injection, schedule: Q01DX009 (ip), vehicle: saline). In addition, the T/C was 176 % of control (dose: 64.0 mg/kg/injection, schedule: Q01DX009 (oral), vehicle: saline); 377 % of control (dose: 64.0 mg/kg/injection, schedule: Q03HX016 (ip), vehicle: saline); 90 % of control (dose: 64.0 mg/kg/injection, schedule: Q03HX024 (oral), vehicle: saline); 116 % of control (dose: 64.0 mg/kg/injection, schedule: Q08DX002 (ip), vehicle: saline); 202 % of control (dose: 75.0 mg/kg/injection, schedule: Q01DX008 (oral), vehicle: saline); 182 % of control (dose: 75.0 mg/kg/injection, schedule: Q04DX003 (ip), vehicle: saline). For the same molecule, the T/C is, setting by setting: (dose: 80.0 mg/kg/injection, schedule: Q01DX007 (ip), vehicle: saline) 161 % of control; (dose: 80.0 mg/kg/injection, schedule: Q01DX009 (ip), vehicle: saline) 117 % of control; (dose: 80.0 mg/kg/injection, schedule: Q04DX003 (ip), vehicle: saline) 157 % of control; under setting [2], 113 % of control and 115 % of control; (dose: 128.0 mg/kg/injection, schedule: Q01DX001 (ip), vehicle: saline) 120 % of control; (dose: 128.0 mg/kg/injection, schedule: Q01DX001 (sc), vehicle: saline) 123 % of control. The T/C (dose: 128.0 mg/kg/injection, schedule: Q01DX009 (ip), vehicle: saline) is 114 % of control; the T/C (dose: 128.0 mg/kg/injection, schedule: Q01DX009 (sc), vehicle: saline) is 88 % of control; the T/C (dose: 128.0 mg/kg/injection, schedule: Q04DX003 (ip), vehicle: saline) was 163 % of control; the T/C (dose: 128.0 mg/kg/injection, schedule: Q04DX003 (oral), vehicle: saline) was 158 % of control; the T/C (dose: 150.0 mg/kg/injection, schedule: Q01DX001 (ip), vehicle: saline) is 110 % of control; the T/C (dose: 150.0 mg/kg/injection, schedule: Q01DX001 (oral), vehicle: saline) is 115 % of control. Also, the T/C was 151 % of control (dose: 150.0 mg/kg/injection, schedule: Q04DX003 (ip), vehicle: saline); 101 % of control under setting [3]; 109 % of control (dose: 256.0 mg/kg/injection, schedule: Q01DX009 (oral), vehicle: saline); 171 % of control (dose: 256.0 mg/kg/injection, schedule: Q04DX003 (oral), vehicle: saline); 115 % of control (dose: 300.0 mg/kg/injection, schedule: Q01DX001 (oral), vehicle: saline); 239 % of control (dose: 300.0 mg/kg/injection, schedule: Q04DX003 (ip), vehicle: saline). The T/C reads like this: (dose: 512.0 mg/kg/injection, schedule: Q01DX001 (sc), vehicle: saline) 153 % of control; (dose: 512.0 mg/kg/injection, schedule: Q04DX003 (oral), vehicle: saline) 206 % of control; (dose: 600.0 mg/kg/injection, schedule: Q01DX001 (ip), vehicle: saline) 172 % of control; (dose: 600.0 mg/kg/injection, schedule: Q04DX003 (ip), vehicle: saline) 259 % of control; (dose: 1024.0 mg/kg/injection, schedule: Q01DX001 (ip), vehicle: saline) 161 % of control; (dose: 1024.0 mg/kg/injection, schedule: Q01DX001 (sc), vehicle: saline) 239 % of control. The T/C reads like this: (dose: 1024.0 mg/kg/injection, schedule: Q04DX003 (ip), vehicle: saline) 286 % of control; (dose: 1024.0 mg/kg/injection, schedule: Q04DX003 (oral), vehicle: saline) 122 % of control; (dose: 1024.0 mg/kg/injection, schedule: Q08DX002 (ip), vehicle: saline) 250 % of control; (dose: 1200.0 mg/kg/injection, schedule: Q01DX001 (ip), vehicle: saline) 183 % of control.
Regarding `NCCSCC(N)C(=O)O` (stereo not given), the T/C runs as follows: under setting [1], 100 % of control; under setting [2], 100 % of control; under setting [3], 104 % of control.
Consider `COC(=O)Nc1cccc(OC(=O)N(C(C)C)C(C)C)c1`, for which the T/C was 94 % of control (dose: 100.0 mg/kg/injection, schedule: Q04DX003 (ip), vehicle: saline with Tween-80); 97 % of control (dose: 200.0 mg/kg/injection, schedule: Q04DX003 (ip), vehicle: saline with Tween-80); 96 % of control (dose: 400.0 mg/kg/injection, schedule: Q04DX003 (ip), vehicle: saline with Tween-80).
`O=C(OCC1OC(n2cc[n+]([O-])nc2=O)C(OC(=O)c2ccccc2)C1OC(=O)c1ccccc1)c1ccccc1` (stereo not given): the T/C (dose: 25.0 mg/kg/injection, schedule: Q01DX005 (ip), vehicle: other) is 90 % of control; the T/C (dose: 50.0 mg/kg/injection, schedule: Q01DX005 (ip), vehicle: other) is 101 % of control; the T/C (dose: 100.0 mg/kg/injection, schedule: Q01DX005 (ip), vehicle: other) is 104 % of control; the T/C (dose: 200.0 mg/kg/injection, schedule: Q01DX005 (ip), vehicle: other) was 122 % of control; the T/C (dose: 400.0 mg/kg/injection, schedule: Q01DX005 (ip), vehicle: other) is 113 % of control.
